The record followed here is US9661854B2, “Molecules having pesticidal utility, and intermediates, compositions, and processes, related thereto” (Dow AgroSciences LLC, priority 2015, dated 2017).

As a reminder, the mortality is the share of the test organisms that died.

For test [1], the system named is Beet Armyworm (Spodoptera exigua, LAPHEG). As to the kind of experiment: Bioassay on Beet Armyworm (BAW), 128-well diet tray assay. The class given is in vivo. Particulars: 168 h, 50 μg/cm^2 on artificial diet, second instar larvae, 25° C., five to seven days, average of eight wells, read-out: BAW % Control (or Mortality) rating. How it is done:
(§1) Example A: Bioassays on Beet Armyworm (Spodoptera exigua, LAPHEG) (“BAW”) and Cabbage Looper (Trichoplusia ni, TRIPNI) (“CL”)
(§2) Certain molecules disclosed in this document were tested against BAW and CL using procedures described in the following examples. In the reporting of the results, the “BAW & CL Rating Table” was used (See Table Section).
Bioassays on BAW were conducted using a 128-well diet tray assay. One to five second instar BAW larvae were placed in each well (3 mL) of the diet tray that had been previously filled with 1 mL of artificial diet to which 50 μg/cm^2 of the test molecule (dissolved in 50 μL of 90:10 acetone-water mixture) had been applied (to each of eight wells) and then allowed to dry. Trays were covered with a clear self-adhesive cover, vented to allow gas exchange, and held at 25° C., 14:10 light-dark for five to seven days. Percent mortality was recorded for the larvae in each well; activity in the eight wells was then averaged. The results are indicated in the table entitled “Table ABC: Biological Results” (See Table Section).

The subject of test [2] is Cabbage Looper (Trichoplusia ni, TRIPNI). As to the kind of experiment: Bioassay on Cabbage Looper (CL), 128-well diet tray assay. It is filed as in vivo. The settings on record: 168 h, 50 μg/cm^2 on artificial diet, second instar larvae, 25° C., five to seven days, average of eight wells, read-out: CL % Control (or Mortality) rating. On the procedure:
as §1, §2
Bioassays on CL were conducted using a 128-well diet tray assay. One to five second instar CL larvae were placed in each well (3 mL) of the diet tray that had been previously filled with 1 mL of artificial diet to which 50 μg/cm^2 of the test molecule (dissolved in 50 μL of 90:10 acetone-water mixture) had been applied (to each of eight wells) and then allowed to dry. Trays were covered with a clear self-adhesive cover, vented to allow gas exchange, and held at 25° C., 14:10 light-dark for five to seven days. Percent mortality was recorded for the larvae in each well; activity in the eight wells was then averaged. The results are indicated in the table entitled “Table ABC: Biological Results” (See Table Section).

For `COc1cc(CCc2ncn(-c3ccc(OC(F)(F)F)cc3)n2)ccc1NC(=O)/N=C1\SCC(=O)N1c1cc(C)ccc1C(C)C` [F20, (Z)-1-(3-(2-Isopropyl-5-methylphenyl)-4-oxothiazolidin-2-ylidene)-3-(2-methoxy-4-(2-(1-(4-(trifluoromethoxy)phenyl)-1H-1,2,4-triazol-3-yl)ethyl)phenyl)urea], the mortality at 50 µg/cm2 in test [1] and in test [2] was 50 to 100% each time.

Turning to `O=C(/N=C1\SCC(=O)N1c1cccnc1)Nc1ccc(CCc2ncn(-c3ccc(OC(F)(F)F)cc3)n2)cc1` [F75, (Z)-1-(4-Oxo-3-(pyridin-3-yl)thiazolidin-2-ylidene)-3-(4-(2-(1-(4-(trifluoromethoxy)phenyl)-1H-1,2,4-triazol-3-yl)ethyl)phenyl)urea], the mortality at 50 µg/cm2 in test [1] and in test [2] was 50 to 100% throughout.

`Cc1ccc(C(C)C)c(N2C(=O)CS/C2=N\C(=O)Nc2ccc(C3CC3c3ncn(-c4ccc(OC(F)(F)F)cc4)n3)cc2)c1` (centres unmarked) [F73, (Z)-1-(3-(2-Isopropyl-5-methylphenyl)-4-oxothiazolidin-2-ylidene)-3-(4-(2-(1-(4-(trifluoromethoxy)phenyl)-1H-1,2,4-triazol-3-yl)cyclopropyl)phenyl)urea]: the mortality at 50 µg/cm2 in test [1] and in test [2] was 50 to 100% throughout.

On to `Cc1ccc(OCC(F)(F)F)c(N2C(=O)CS/C2=N\C(=O)Nc2ccc(CCc3ncn(-c4ccc(OC(F)(F)F)cc4)n3)cc2)c1` [F13, (Z)-1-(3-(5-Methyl-2-(2,2,2-trifluoroethoxy)phenyl)-4-oxothiazolidin-2-ylidene)-3-(4-(2-(1-(4-(trifluoromethoxy)phenyl)-1H-1,2,4-triazol-3-yl)ethyl)phenyl)urea], for which the mortality at 50 µg/cm2 in test [1] and in test [2] was 50 to 100% in each case.

For `Cc1ccc(C(C)C)c(N2C(=O)CS/C2=N\C(=O)Nc2ccc(CCc3ncn(-c4ccc(OC(F)(F)F)cn4)n3)cc2)c1` [F74, (Z)-1-(3-(2-Isopropyl-5-methylphenyl)-4-oxothiazolidin-2-ylidene)-3-(4-(2-(1-(5-(trifluoromethoxy)pyridin-2-yl)-1H-1,2,4-triazol-3-yl)ethyl)phenyl)urea], the mortality at 50 µg/cm2 in test [1] and in test [2] was 50 to 100% in each case.

Take `Cc1ccc(C(C)C)c(N2C(=O)CS/C2=N\C(=O)Nc2ccc(/C=C/c3ncn(-c4ccc(OC(F)(F)F)cn4)n3)cc2)c1` [F69, 1-((Z)-3-(2-isopropyl-5-methylphenyl)-4-oxothiazolidin-2-ylidene)-3-(4-((E)-2-(1-(5-(trifluoromethoxy)pyridin-2-yl)-1H-1,2,4-triazol-3-yl)vinyl)phenyl)urea]: the mortality at 50 µg/cm2 in test [1] and in test [2] was 50 to 100% each time.

Regarding `CCOc1ccc(C)cc1N1C(=O)CS/C1=N\C(=O)Nc1ccc(CCc2ncn(-c3ccc(OC(F)(F)F)cc3)n2)cc1` [F8, (Z)-1-(3-(2-Ethoxy-5-methylphenyl)-4-oxothiazolidin-2-ylidene)-3-(4-(2-(1-(4-(trifluoromethoxy)phenyl)-1H-1,2,4-triazol-3-yl)ethyl)phenyl)urea], the mortality at 50 µg/cm2 in test [1] and in test [2] was 50 to 100% throughout.

In the case of `Cc1ccc(C(C)C)c(N2C(=O)CS/C2=N\C(=O)Nc2ccc(CCc3ncn(-c4ccc(OC(F)(F)F)cn4)n3)cn2)c1` [F33, (Z)-1-(3-(2-Isopropyl-5-methylphenyl)-4-oxothiazolidin-2-ylidene)-3-(5-(2-(1-(5-(trifluoromethoxy)pyridin-2-yl)-1H-1,2,4-triazol-3-yl)ethyl)pyridin-2-yl)urea], the mortality at 50 µg/cm2 in test [1] and in test [2] was 50 to 100% throughout.

On to `CC(C)c1ccc(C(F)(F)F)cc1N1C(=O)CS/C1=N\C(=O)Nc1ccc(CCc2ncn(-c3ccc(OC(F)(F)F)cc3)n2)cc1F` [F27, (Z)-1-(2-Fluoro-4-(2-(1-(4-(trifluoromethoxy)phenyl)-1H-1,2,4-triazol-3-yl)ethyl)phenyl)-3-(3-(2-isopropyl-5-(trifluoromethyl)phenyl)-4-oxothiazolidin-2-ylidene)urea], for which the mortality at 50 µg/cm2 in test [1] and in test [2] was 50 to 100% throughout.

Turning to `CCCc1ccc(C)cc1N1C(=O)CS/C1=N\C(=O)Nc1ccc(/C=C/c2ncn(-c3ccc(OC(F)(F)F)cc3)n2)cc1` [F45, 1-((Z)-3-(5-Methyl-2-propylphenyl)-4-oxothiazolidin-2-ylidene)-3-(4-((E)-2-(1-(4-(trifluoromethoxy)phenyl)-1H-1,2,4-triazol-3-yl)vinyl)phenyl)urea], the mortality at 50 µg/cm2 in test [1] and in test [2] was 50 to 100% each time.

In the case of `Cc1ccc(C(F)(F)F)c(N2C(=O)CS/C2=N\C(=O)Nc2ccc(CCc3ncn(-c4ccc(OC(F)(F)F)cc4)n3)cc2)c1` [F5, (Z)-1-(3-(5-Methyl-2-(trifluoromethyl)phenyl)-4-oxothiazolidin-2-ylidene)-3-(4-(2-(1-(4-(trifluoromethoxy)phenyl)-1H-1,2,4-triazol-3-yl)ethyl)phenyl)urea], the mortality at 50 µg/cm2 in test [1] and in test [2] was 50 to 100% throughout.

Regarding `Cc1ccc(Cl)c(N2C(=O)CS/C2=N\C(=O)Nc2ccc(/C=C/c3ncn(-c4ccc(OC(F)(F)F)cc4)n3)cc2)c1` [F44, 1-((Z)-3-(2-Chloro-5-methylphenyl)-4-oxothiazolidin-2-ylidene)-3-(4-((E)-2-(1-(4-(trifluoromethoxy)phenyl)-1H-1,2,4-triazol-3-yl)vinyl)phenyl)urea], the mortality at 50 µg/cm2 in test [1] and in test [2] was 50 to 100% throughout.

In the case of `CC(C)c1ccc(C(F)(F)F)cc1N1C(=O)CS/C1=N\C(=O)Nc1ccc(/C=C/c2ncn(-c3ccc(OC(F)(F)F)cc3)n2)cc1F` [F64, 1-(2-fluoro-4-((E)-2-(1-(4-(trifluoromethoxy)phenyl)-1H-1,2,4-triazol-3-yl)vinyl)phenyl)-3-((Z)-3-(2-isopropyl-5-(trifluoromethyl)phenyl)-4-oxothiazolidin-2-ylidene)urea], the mortality at 50 µg/cm2 in test [1] and in test [2] was 50 to 100% in each case.

Regarding `Cc1ccc(C2CC2(F)F)c(N2C(=O)CS/C2=N\C(=O)Nc2ccc(/C=C/c3ncn(-c4ccc(OC(F)(F)F)cc4)n3)cc2F)c1` (centres unmarked) [F67, 1-((Z)-3-(2-(2,2-difluorocyclopropyl)-5-methylphenyl)-4-oxothiazolidin-2-ylidene)-3-(2-fluoro-4-((E)-2-(1-(4-(trifluoromethoxy)phenyl)-1H-1,2,4-triazol-3-yl)vinyl)phenyl)urea], the mortality at 50 µg/cm2 in test [1] and in test [2] was 50 to 100% throughout.

With `Cc1ccc(C2CC2(F)F)c(N2C(=O)CS/C2=N\C(=O)Nc2ccc(CCc3ncn(-c4ccc(OC(F)(F)F)cc4)n3)cc2)c1` (centres unmarked) [F28, (Z)-1-(3-(2-(2,2-Difluorocyclopropyl)-5-methylphenyl)-4-oxothiazolidin-2-ylidene)-3-(4-(2-(1-(4-(trifluoromethoxy)phenyl)-1H-1,2,4-triazol-3-yl)ethyl)phenyl)urea], the mortality at 50 µg/cm2 in test [1] and in test [2] was 50 to 100% in each case.

Regarding `Cc1ccc(C(C)C)c(N2C(=O)CS/C2=N\C(=O)Nc2c(F)cc(/C=C/c3ncn(-c4ccc(OC(F)(F)F)cc4)n3)cc2F)c1` [F57, 1-(2,6-difluoro-4-((E)-2-(1-(4-(trifluoromethoxy)phenyl)-1H-1,2,4-triazol-3-yl)vinyl)phenyl)-3-((Z)-3-(2-isopropyl-5-methylphenyl)-4-oxothiazolidin-2-ylidene)urea], the mortality at 50 µg/cm2 in test [1] and in test [2] was 50 to 100% throughout.
